# Literature values, collected in patent US20230041138A1, “TREATMENT OF HIS HYPORESPONDERS” (NewAmsterdam Pharma B.V. (Dutch Registration No. 55971946), priority 2021, published 2023).
# System: LDL-C
# Settings: rosuvastatin 20 mg; cited from earlier work
smiles,measurement,value
CC(C)c1nc(N(C)S(C)(=O)=O)nc(-c2ccc(F)cc2)c1/C=C/[C@@H](O)C[C@@H](O)CC(=O)O [rosuvastatin],median LDL-C lowering response,50%
same,share of patients with LDL-C reduction <50%,43%
